Measured values published in PMC6010545, “Identification of a Novel Polyamine Scaffold With Potent Efflux Pump Inhibition Activity Toward Multi-Drug Resistant Bacterial Pathogens” (Frontiers in Microbiology, 2018).
Like-named read-outs stand apart in the source and are kept apart here.

How the values were obtained:
[1] = system: tetracycline-resistant P. aeruginosa isolate 1419; experiment: Checkerboard potentiation assay with tetracycline; assay type: cell-based, Pseudomonas aeruginosa
Method: Scaffold ranking library samples and individual polyamines were screened using checkerboard inhibitory assays to assess the potentiation of tetracycline and chloramphenicol. The test utilized a 96-well plate microtiter assay where the concentration of the scaffold or individual polyamine was decreased from 25 to 0.8 μg mL^-1 (average molarity of mixture samples 65 to 4 μM) along the rows, and the concentration of tetracycline or chloramphenicol was increased from 0.4 to 100 μM across the columns. […] However, with the known antibiotics, we report EC90 values in μM, which more accurately describes purified compounds. Plates were incubated statically at 37°C for 20 h, and the optical density (OD600) was determined using a Synergy 2 plate reader (BioTek). Potentiation modeling (detailed below) was performed to determine fold change in the 50 and 90% effective concentration of tetracycline or chloramphenicol.
Potentiation was quantified using a mathematical model developed by our group to assess the ability of library samples and individual compounds to effectively enhance the activity of tetracycline or chloramphenicol ([Hoel, 1987]). […] In this way, only libraries and compounds that potentiated tetracycline or chloramphenicol activity were pursued. The model is based on the following equation for modeling the percentage activity of a mixture of two agents with independent action ([Hoel, 1987]):
%Antibiotic & Comp(X1,X2)=%Antibiotic(X1)+%Comp(X2)−%Antibiotic(X1)⋅%Comp(X2)
Here, x1 and x2 are the concentrations of antibiotic (tetracycline or chloramphenicol) and library/compound (Comp) tested, respectively. This equation can be rearranged to model the effective percent activity (EC) of the antibiotic alone, after accounting for compound activity:
Eff%Antibiotic(X1)=%Antibiotic & Compound(X1,X2)−%Compound(X2)/1−%Compound(X2)
Thus, the model-adjusted checkerboards show the antibiotic activity post-potentiation, and from that one can determine the true change in Mic.

[2] = system: A. baumannii (1643); experiment: Potentiation of levofloxacin; assay type: cell-based; conditions: increasing polyamine concentration
[3] = system: P. aeruginosa proficient (1419) and deficient (1418) strain; experiment: Aztreonam combination testing in efflux proficient and deficient strains; assay type: cell-based; conditions: strain 1419 (efflux proficient); polyamine 12.5 μg mL^-1, ½ X MIC aztreonam
Method: FIGURE 6 Confirming efflux pump inhibition by polyamines using efflux deficient strains. (A) A P. aeruginosa proficient (1419) and deficient (1418) strain were subjected to combination testing of the polyamines at 12.5 μg mL^-1 and ½ X MIC of aztreonam. Fold potentiation was calculated by dividing the CFU mL^-1 for aztreonam only by the CFU mL^-1 of the combined treatment groups. (B) Lead polyamine 247 was assessed for its ability to potentiate the activity of chloramphenicol toward S. aureus strain United States 300 and its norA mutant. Shown is the potentiated chloramphenicol EC90 calculated as described in A. Error bars are shown ± SEM.

[4] = MTT cytotoxicity assay; assay type: cell-based; conditions: human, 25 μg mL^-1, 48 h, read-out: percent recovery (cell viability)
Method: To assess toxicity of polyamine compounds we used HepG2 human liver carcinoma cells and Hek293T human embryonic kidney epithelial cells. The viability of cell lines was determined using a 3-(4,5-dimethylthiazol-2-yl)-2,5-diphenyltetrazolium bromide (MTT) molecular probe as previously described by our group ([Fleeman et al., 2015]). Briefly, 247, 266, 271 (Hek293T), or 250, 271, 314 (HepG2), alongside control efflux pump inhibitor PaβN, were diluted in 10% DMF from 25 μg mL^-1 to 3 μg mL^-1 using twofold dilutions, before being added to cells in DMEM with 10% FBS and 1% penicillin/streptomycin. Cells were then incubated for 48 h at 37°C with 5% CO2. Following this, viability was assessed by the addition of MTT and measuring the OD570 in a Biotek plate reader. Percent recovery was determined compared to no drug controls.

In the case of NCCC[C@H](CN)NC[C@H](Cc1ccccc1)NCCc1ccccc1 [compound 271], the “FP* (fold potentiation of tetracycline EC50)” value ([1]; 25 µg ml-1 TPI, EC50 tetracycline no TPI / with TPI) is reported as 8.2 fold, the “FP# (fold potentiation of tetracycline EC90)” value ([1]; 25 µg ml-1 TPI, EC90 tetracycline no TPI / with TPI) is reported as 8.5 fold and the “FP* (fold potentiation of tetracycline EC50)” value ([1]; EC50 tetracycline without EPI / with EPI) is reported as 8.2 fold. The “FP# (fold potentiation of tetracycline EC90)” value ([1]; EC90 tetracycline without EPI / with EPI) was 8.5 fold, the EC50 ([1]; Pseudomonas aeruginosa, 20 h, inhibitor alone, 25 μg mL^-1 highest concentration tested, * = EC50, read-out: EPI* (inhibitory concentration of efflux pump inhibitor alone)) was > 25 µg/mL and the “TPI (inhibitory concentration of polyamine alone)” value ([1]; polyamine alone, 25 µg ml-1 highest tested) was > 25 µg/mL. The potentiation of levofloxacin [2] was “dose response curve of antibiotic potentiation”, the potentiation of aztreonam [3] was “best potentiators of aztreonam” and the recovery at 48 h, 25 μg mL^-1 ([4]; Hek293T human embryonic kidney epithelial cells, vs solvent only controls) was 75%. For the same compound, the recovery at 48 h, 25 μg mL^-1 ([4]; HepG2 human liver carcinoma cells) was 74%.
